Experimental data as given in patent publication US6596713B1, “Steroid esters and amides, process for their production and their pharmaceutical use” (priority 1994, dated 2003).

Assay type: physicochemical
Details: temperature in which 50 mg of substance is dissolved in 1 ml of a 1:4 benzyl benzoate/castor oil mixture; lower temperature = better solubility

| Substance | Solubility [°C] |
| --- | --- |
| (Z)-6′-(4-Cyanophenyl)-9,11α-dihydro-17β-hydroxy-17α-[3-[(1-oxononyl)oxy]-1-propenyl]-4′H-naphtho[3′,2′,1′:10,9,11]estr-4-en-3-one [Example 4] | 23 |
| (Z)-6′-(4-Cyanophenyl)-9,11α-dihydro-17β-hydroxy-17α-[3-[(1-oxopentyl)oxy]-1-propenyl]-4′H-naphtho[3′,2′,1′:10,9,11]estr-4-en-3-one [Example 2] | 50 |
| (Z)-6′-(4-Cyanophenyl)-17α-[3-(3-cyclopentyl-1-oxopropoxy)-1-propenyl]-9,11α-dihydro-17β-hydroxy-4′H-naphtho[3′,2′,1′:10,9,11]estr-4-en-3-one [Example 8] | 23 |
| (Z)-6′-(4-Fluorophenyl)-17α-(3-hydroxyprop-1-enyl)-9, 11α-dihydro-17β-hydroxy-4′-naphtho]3′,2′,1′:10,9,11]estr-4-en-3-one [Ref. 4, reference compound] | 100 |
| (Z)-9,11α-Dihydro-17α-[3-(1,4-dioxo-4-ethoxybutoxy)-1-propenyl]-17β-hydroxy-6′-(3-pyridinyl)-4′H-naphtho[3′,2′,1′:10,9,11]estr-4-en-3-one [Example 22] | 50 |
| (Z)-9,11α-Dihydro-17α-[3-(3,3-dimethyl-1-oxobutoxy)-1-propenyl]-6′-(3-pyridinyl)-17βhydroxy-4′H-naphtho[3′,2′,1′:10,9,11]estr-4-en-3-one [Example 21] | 50 |
| (Z)-9,11α-Dihydro-17β-hydroxy-17α-[3-(1-oxopropoxy)-1-propenyl]-6′-(3-pyridinyl)-4′H-naphtho[3′,2′,1′:10,9,11]estr-4-en-3-one [Example 18] | 50 |
| (Z)-9,11α-Dihydro-17β-hydroxy-17α-[3-[(1-oxopentyl)oxy]-1-propenyl]-6′-(3-pyridinyl)-4′H-naphtho[3′,2′,1′:10,9,11]estr-4-en-3-one [Example 19] | 50 |
| [S-(Z)]-6′-(4-Cyanophenyl)-9,11α-dihydro-17α-[3-[2-[[(1,1-dimethylethoxy)carbonyl]amino]-3-methyl-1-oxobutoxy]-17β-hydroxy-4′H-naphtho[3′,2′,1′:10,9,11]estr-4-en-3-one [Example 17] | 50 |
| [S-(Z)]-6′-(4-Fluorophenyl)-9,11α-dihydro-17α-[3-[2-[[(1,1-dimethylethoxy)carbonyl]amino]-1-oxopropoxy]-1-propenyl]-17β-hydroxy-4′H-naphtho[3′,2′,1′:10,9,11]estr-4-en-3-one [Example 41] | 23 |
| [S-(Z)]-9,11α-Dihydro-17α-[3-[2-[[(1,1-dimethylethoxy)carbonyl]amino]-1-oxopropoxy]-1-propenyl]-17β-hydroxy-6′-(3-pyridinyl)-4′H-naphtho[3′,2′,1′:10,9,11]estr-4-en-3-one [Example 24] | 50 |
| [S-(Z)]-9,11α-Dihydro-17α-[3-[2-[[(1,1-dimethylethoxy)carbonyl]amino]-3-methyl-1-oxobutoxy]-1-propenyl]-17βhydroxy-6′-(3-pyridinyl)-4′H-naphtho[3′,2′,1′:10,9,11]estr-4-en-3-one [Example 25] | 50 |
| [S-(Z)]-9,11α-Dihydro-17α-[3-[[[(1,1-dimethylethoxy)carbonyl]amino]acetyloxy]-1-propenyl]-17β-hydroxy-6′-(3-pyridinyl)-4′H-naphtho[3′,2′,1′:10,9,11]estr-4-en-3-one [Example 35] | 23 |
| [S-(Z)]-17α-[3-(2-Amino-1-oxopropoxy)-1-propenyl]-6′-(4-fluorophenyl)-9,11α-dihydro-17β-hydroxy-4′H-naphtho[3′,2′,1′:10,9,11]estr-4-en-3-one [Example 40] | 50 |
| [S-(Z)]-17α-[3-(2-Amino-3-methyl-1-oxobutoxy)-1-propenyl]-6′-(4-cyanophenyl)-9,11α-dihydro-17β-hydroxy-4′H-naphtho[3′,2′,1′:10,9,11]estr-4-en-3-one [Example 16] | 100 |
